Data: patent US20260102387A1, “IMMUNOSUPPRESSIVE COMPOUNDS” (UNIVERSITÄT BASEL, priority 2022, published 2026)
Where two headings read alike, the source gives them in different places.

Assays:
[1] = system: coronin 1 promoter; test: Fluorescence-based screening assay: coronin 1 promoter driven GFP in RBL cells (microplate reader / microscopy); type: cell-based; details: RBL, 48 h, read-out: GFP values (%)
Experimental: The murine coronin 1 promoter sequences of SEQ ID NO: 1-6 were each cloned into a plasmid lacking a promoter (promoterless) but containing a destabilized Green Fluorescence Protein (GFP) cassette. Rat Basophil Leukemia (RBL) cells were transfected with the plasmids, stable GFP expressing cells were enriched, incubated with various compounds and assessed for coronin 1 promoter inhibition by assessing green fluorescence values (FIG. 2).
The plasmids were independently transfected into immune cells (Rat basophil Leukemia, RBL cells) to generate green and red fluorescent RBL cells that were subsequently enriched by means of flow cytometry. These cells were then mixed in equal ratio (1:1) and incubated in a 96 well plate at 100,000 cells/well in a volume of 200 μl of phenol red free RPMI supplemented with 8% fetal calf serum, L-glutamate and antibiotics (penicillin, […]) from available chemical libraries. At defined time points (8 h, 24 h and 48 h), the GFP and RFP fluorescence was measured using a 96 well microplate reader (Synergy, BioTek Instruments). […] Selected compounds show different levels of modulation of coronin 1 promoter driven GFP and CMV promoter driven RFP fluorescence. GFP and RFP fluorescence were analyzed with a microplate reader upon incubation with the top coronin 1 promoter inhibiting compounds. Shown are percentage of GFP reduction (left column) and percentage of RFP reduction (right column) for the compounds at 5 μg/ml concentration at 48 h. Cycloheximide (CHX) serves as positive control whereas media and DMSO serve as negative controls. […] Cells were imaged using a fluorescence microscope to validate fluorescence inhibition (FIG. 3A) and as well assess morphology and viability (in addition to GFP down regulation confirmation). In addition, quantitative Polymerase Chain Reaction (qPCR) for coronin 1 mRNA transcripts reveal reduction with compound 11 (FIG. 3B). The primers used for the qPCR on RBL cells are listed below as follows;

[2] = system: early cytomegalovirus promoter; test: Screening assay control: CMV promoter driven RFP in RBL cells (microplate reader); type: cell-based; details: 48 h
Experimental: As an unrelated promoter, the early cytomegaloviral promoter element was cloned into a promoterless Red Fluorescence Protein (RFP) expression plasmid. Rat Basophil Leukemia (RBL) cells were transfected with the plasmid, stable RFP expressing cells enriched, incubated with various compounds and were assessed for red fluorescence values. Analyzing the inhibition of an unrelated promoter (in this case, early cytomegalovirus promoter) that drove Red Fluorescence Protein (RFP) expression assessed non-specificity of the compound under analysis.
The plasmids were independently transfected into immune cells (Rat basophil Leukemia, RBL cells) to generate green and red fluorescent RBL cells that were subsequently enriched by means of flow cytometry. These cells were then mixed in equal ratio (1:1) and incubated in a 96 well plate at 100,000 cells/well in a volume of 200 μl of phenol red free RPMI supplemented with 8% fetal calf serum, L-glutamate and antibiotics (penicillin, streptomycin) and various compounds (3 and 5 μg/ml concentrations) from available chemical libraries. At defined time points (8 h, 24 h and 48 h), the GFP and RFP fluorescence was measured using a 96 well microplate reader (Synergy, BioTek Instruments). […] Selected compounds show different levels of modulation of coronin 1 promoter driven GFP and CMV promoter driven RFP fluorescence. GFP and RFP fluorescence were analyzed with a microplate reader upon incubation with the top coronin 1 promoter inhibiting compounds. Shown are percentage of GFP reduction (left column) and percentage of RFP reduction (right column) for the compounds at 5 μg/ml concentration at 48 h. Cycloheximide (CHX) serves as positive control whereas media and DMSO serve as negative controls. […] Cells were imaged using a fluorescence microscope to validate fluorescence inhibition (FIG. 3A) and as well assess morphology and viability (in addition to GFP down regulation confirmation). In addition, quantitative Polymerase Chain Reaction (qPCR) for coronin 1 mRNA transcripts reveal reduction with compound 11 (FIG. 3B). The primers used for the qPCR on RBL cells are listed below as follows;

[3] = system: RBL cells; test: Cell viability by live-dead staining (cytotoxicity), flow cytometry; type: cell-based, Rat; details: cell viability via live/dead staining, 48-65 h, read-out: EC50 Toxicity
Experimental: (§1) RBL cells expressing GFP under coronin 1 promoter and optionally with RBL cells expressing RFP under CMV promoter were mixed in equal numbers and incubated with the compounds at indicated concentrations for 48-65 h and analyzed by flow cytometry for alteration in coronin 1 promoter (GFP fluorescence), CMV promoter (RFP fluorescence) values. In addition, the cells were labelled with live-dead marker for assessing cell viability status by flow cytometry. Cycloheximide (CHX) serves as positive control and DMSO serves as negative controls. Effective Concentration (EC50) values for coronin 1 promoter inhibition via GFP fluorescence analysis, non-specific promoter inhibition via CMV promoter driven-RFP fluorescence analysis and cell viability via live/dead staining as a measure for toxicity in flow cytometry for compounds (10-22 and 50a-65a) are shown in Table 6 and Table 7. Based on the EC50 analysis of the inhibition of coronin 1 promoter driven GFP fluorescence the (4S,7R)-configurated eutomers were identified (Structures FIG. 9A-C). This is exemplified for compounds containing two stereocenters by eutomers 11c and 13a. […] Subsequent EC50 evaluations (Table 7) were performed with compound 13a as standard for relative potency normalized to a value of 1.00 (relative potency calculated as [EC50 GFP inhibition 13a]/[EC50 GFP inhibition compound of interest]).

[4] = system: coronin 1 promoter; test: EC50 analysis for coronin 1 promoter driven GFP inhibition by flow cytometry in RBL cells; type: cell-based; details: RBL cells, 48-65 h, flow cytometry
Experimental: RBL cells that had been incubated with the indicated calcium channel blockers (amlodipine (3.125 μM) and verapamil (8 μM) concentrations for 48 h were analyzed by flow cytometry for any alteration in coronin 1 promoter driven GFP fluorescence. The results reveal no effect of calcium channel blockers on coronin 1 promoter activity (FIG. 4).
as §1

[5] = 5 μg/ml, microplate reader, DMSO = 100
[6] = 5 μg/ml, microplate reader, DMSO = 100, read-out: RFP values (%)

| EC50 ([4]; RBL) [nM] | SMILES | EC50 ([3]; Rattus norvegicus, RBL) [µM] | also measured |
| --- | --- | --- | --- |
|  | CC1=C(C(=O)OCC2CCCO2)C(c2ccsc2)C2=C(C[C@@H](c3cccs3)CC2=O)N1 (mixture of isomers) [Comp. 7, tetrahydro-2-furanylmethyl-2-methyl-5-oxo-7-(2-thienyl)-4-(3-thienyl)-1,4,5,6,7,8-hexahydro-3-quinolinecarboxylate] |  | activity at 5 µg/mL [1, 5]: 77%; activity at 5 µg/mL [2, 6]: 95% |
|  | COC(=O)C1=C(C)NC2=C(C(=O)C[C@H](c3ccccc3OC)C2)[C@@H]1c1cccc(O)c1 (stereo in doubt) [11a, methyl-4-(3-hydroxyphenyl)-7-(2-methoxyphenyl)-2-methyl-5-oxo-1,4,5,6,7,8-hexahydro-3-quinolinecarboxylate] | > 9 | EC50 [4]: 500 nM |
| > 36000 | COC(=O)C1=C(C)NC2=C(C(=O)C[C@H](c3ccccc3OC)C2)[C@H]1c1cccc(O)c1 (stereo in doubt) [11b, methyl-4-(3-hydroxyphenyl)-7-(2-methoxyphenyl)-2-methyl-5-oxo-1,4,5,6,7,8-hexahydro-3-quinolinecarboxylate] | > 36 |  |
| 200 | COc1ccccc1[C@H]1CC(=O)C2=C(C1)NC(C)=C(C(=O)OCC1CCCO1)[C@H]2c1cccc(O)c1 (stereo in doubt) [12a, tetrahydro-2-furanylmethyl-4-(3-hydroxyphenyl)-7-(2-methoxyphenyl)-2-methyl-5-oxo-1,4,5,6,7,8-hexahydro-3-quinolinecarboxylate] | > 30 |  |
| > 30000 | COc1ccccc1[C@H]1CC(=O)C2=C(C1)NC(C)=C(C(=O)OCC1CCCO1)[C@@H]2c1cccc(O)c1 (stereo in doubt) [12b, tetrahydro-2-furanylmethyl-4-(3-hydroxyphenyl)-7-(2-methoxyphenyl)-2-methyl-5-oxo-1,4,5,6,7,8-hexahydro-3-quinolinecarboxylate] | > 30 |  |
|  | COC(=O)C1=C(C)NC2=C(C(=O)C[C@H](c3ccccc3OC)C2)[C@@H]1c1cccc(O)c1 [11c, methyl (4S, 7R)-4-(3-hydroxyphenyl)-7-(2-methoxyphenyl)-2-methyl-5-oxo-1,4,5,6,7,8-hexahydro-3-quinolinecarboxylate] |  | EC50 [3]: > 9 µM; EC50 [4]: 175 nM |
| 2000 | COC(=O)C1=C(C)NC2=C(C(=O)C[C@@H](c3ccccc3OC)C2)[C@H]1c1cccc(O)c1 [11d, methyl-4-(3-hydroxyphenyl)-7-(2-methoxyphenyl)-2-methyl-5-oxo-1,4,5,6,7,8-hexahydro-3-quinolinecarboxylate] | > 18 |  |
| 2500 | COc1ccccc1[C@@H]1CC(=O)C2=C(C1)NC(C)=C(C(=O)OC[C@@H]1CCCO1)[C@@H]2c1cccc(O)c1 [12f, tetrahydro-2-furanylmethyl-4-(3-hydroxyphenyl)-7-(2-methoxyphenyl)-2-methyl-5-oxo-1,4,5,6,7,8-hexahydro-3-quinolinecarboxylate] | > 2 |  |
|  | C[C@@H]1C[C@@H]([C@H](O)CC2CC(=O)NC(=O)C2)C(=O)[C@@H](C)C1 [CHX, cycloheximide, reference compound] |  | activity at 5 µg/mL [1]: 21%; activity at 5 µg/mL ([2]; read-out: RFP values (%)): 40% |
|  | COc1ccccc1C1CC(=O)C2=C(C1)NC(C)=C(C(=O)OCC1CCCO1)C2c1cccs1 (stereo not drawn) [Comp. 1, tetrahydro-2-furanylmethyl-7-(2-methoxyphenyl)-2-methyl-5-oxo-4-(2-thienyl)-1,4,5,6,7,8-hexahydro-3-quinolinecarboxylate] |  | activity at 5 µg/mL [1, 5]: 35%; activity at 5 µg/mL [2, 6]: 66% |
|  | COC(=O)C1=C(C)NC2=C(C(=O)CC(c3ccccc3OC)C2)C1c1ccc(F)cc1 (stereo not drawn) [Comp. 2, methyl-4-(4-fluorophenyl)-7-(2-methoxyphenyl)-2-methyl-5-oxo-1,4,5,6,7,8-hexahydro-3-quinolinecarboxylate] |  | activity at 5 µg/mL [1, 5]: 52%; activity at 5 µg/mL [2, 6]: 81% |
| 250 | COC(=O)C1=C(C)NC2=C(C(=O)CC(c3ccccc3OC)C2)C1c1ccccc1 (stereo not drawn) [compound 14, methyl 7-(2-methoxyphenyl)-2-methyl-5-oxo-4-phenyl-1,4,5,6,7,8-hexahydroquinoline-3-carboxylate] | > 6 |  |
| 1200 | COC(=O)C1=C(C)NC2=C(C(=O)CC(c3ccccc3OC)C2)C1c1cccc(OC)c1 (stereo not drawn) [compound 15, methyl 7-(2-methoxyphenyl)-4-(3-methoxyphenyl)-2-methyl-5-oxo-1,4,5,6,7,8-hexahydroquinoline-3-carboxylate] | > 15 |  |
| 900 | COC(=O)C1=C(C)NC2=C(C(=O)CC(c3ccccc3OC)C2)C1c1ccccc1O (stereo not drawn) [compound 16, methyl 4-(2-hydroxyphenyl)-7-(2-methoxyphenyl)-2-methyl-5-oxo-1,4,5,6,7,8-hexahydroquinoline-3-carboxylate] | > 7.5 |  |
| 100 | COCCCCOC(=O)C1=C(C)NC2=C(C(=O)CC(c3ccccc3OC)C2)C1c1cccc(O)c1 (stereo not drawn) [compound 17, 4-methoxybutyl 4-(3-hydroxyphenyl)-7-(2-methoxyphenyl)-2-methyl-5-oxo-1,4,5,6,7,8-hexahydroquinoline-3-carboxylate] | > 5 |  |
| 160 | COc1ccccc1C1CC(=O)C2=C(C1)NC(C)=C(C(=O)OCC1CC(C)(C)OC(C)(C)C1)C2c1cccc(O)c1 (stereo not drawn) [compound 19, (2,2,6,6-tetramethyltetrahydro-2H-pyran-4-yl)methyl 4-(3-hydroxyphenyl)-7-(2-methoxyphenyl)-2-methyl-5-oxo-1,4,5,6,7,8-hexahydroquinoline-3-carboxylate] | > 2.5 |  |
| 500 | COc1ccccc1C1CC(=O)C2=C(C1)NC(C)=C(C(=O)OC1COC1)C2c1cccc(O)c1 (stereo not drawn) [compound 20, oxetan-3-yl 4-(3-hydroxyphenyl)-7-(2-methoxyphenyl)-2-methyl-5-oxo-1,4,5,6,7,8-hexahydroquinoline-3-carboxylate] | > 2.5 |  |
| 280 | COc1ccccc1C1CC(=O)C2=C(C1)NC(C)=C(C(=O)OC(C)(C)C)C2c1cccc(O)c1 (stereo not drawn) [compound 21, tert-butyl 4-(3-hydroxyphenyl)-7-(2-methoxyphenyl)-2-methyl-5-oxo-1,4,5,6,7,8-hexahydroquinoline-3-carboxylate] | > 2.5 |  |
